In patent US8980311B2, “Liposome-mediated ligation” (University of Georgia Research Foundation, Inc., priority 2006, dated 2015) one finds solubility data, which are given here for one compound.

The conditions of this data set: phosphate buffer containing 6 M guanidinium-hydrochloride.

Where a SMILES comes first, the peptide text is derived from it. The star is where a group is joined. Propyl(2R-PamO,3-PamO) = CCCCCCCCCCCCCCCC(=O)OC[C@H](C*)OC(=O)CCCCCCCCCCCCCCC; Palmitoyl = CCCCCCCCCCCCCCCC(=O)*; SBn = c1ccc(CS*)cc1

As for `CCCCCCCCCCCCCCCC(=O)N[C@@H](CSC[C@@H](COC(=O)CCCCCCCCCCCCCCC)OC(=O)CCCCCCCCCCCCCCC)C(=O)N[C@@H](CO)C(=O)N[C@@H](CCCCN)C(=O)N[C@@H](CCCCN)C(=O)N[C@@H](CCCCN)C(=O)N[C@@H](CCCCN)C(=O)NCC(=O)SCc1ccccc1` [Compound 6] (Palmitoyl-C(Propyl(2R-PamO,3-PamO))SKKKKG-SBn), the solubility result was “poor solubility”.
